Test results: US9399649B2, “Compounds for treating spinal muscular atrophy” (PTC Therapeutics Inc., priority 2012, dated 2016)

System: human SMN1 minigene full length and Δ7 mRNA
Experiment: Human SMN1 minigene mRNA end-point semi-quantitative RT-PCR splicing assay in cultured cells
Type: cell-based
Details: HEK293H cells transfected with SMN1-A minigene, increasing concentrations, 7 hours, FIG. 17
Description: The RT-PCR assay is used to visualize and quantify the levels of the human SMN1 minigene full length and Δ7 mRNA in primary cells and cell lines expressing the human SMN1 minigene construct treated with a test compound.
Using the procedure for the preparation of the SMN2 minigene construct described in Biological Example 1, the SMN1 version of the minigene is generated by changing the sixth nucleotide of exon 7 (a thymine residue) of the SMN2-A minigene construct to cytosine using site directed mutagenesis. Thus, similar to the SMN2-A minigene construct, the SMN1 minigene construct has a single adenine residue inserted after nucleic residue 48 of exon 7. The SMN1 minigene construct is referred to as SMN1-A.
HEK293H cells (10,000 cells/well/199 μL) were transfected, using FuGENE-6 reagent, in a 96-well plate with 15 ng of the SMN1-A minigene reporter plasmid per well. Cells were incubated for 24 hours following transfection. Test compounds were serially diluted 3.16-fold in 100% DMSO to generate a 7-point concentration curve. A solution of test compound (1 μL, 200× in DMSO) was added to each test well. 1 μL DMSO was added to each control well. The plate was incubated for 7 hours in a cell culture incubator (37° C., 5% CO2, 100% relative humidity). The cells were then lysed in Cells-To-Ct lysis buffer and the lysates were stored at 80° C.
Two SMN spliced mRNA are generated from the SMN1 minigene. The term “SMN1 minigene FL” refers to the first spliced product containing exon 7, corresponding to full length SMN1 mRNA. The term “SMN1 minigene A7” refers to the second product lacking exon 7.
SMN minigene FL and Δ7 mRNA are amplified using the primers in Table 11. Primer SMN Forward C (SEQ ID NO. 11) hybridizes to a nucleotide sequence in exon 6 (nucleotide 43 to nucleotide 63), primer SMN Reverse A (SEQ ID NO. 2) hybridizes to a nucleotide sequence in the coding sequence of Firefly luciferase. The combination of these two oligonucleotides detects only SMN1 or SMN2 minigenes (RT-PCR) and will not detect endogenous SMN1 or SMN2 genes. Since the SMA patient cells used in Example 16 were transfected with only the human SMN1 minigene, RT-PCR can visualize and quantify only SMN1 minigene full-length and SMN1 minigene Δ7 mRNA.
To synthesize cDNA, 5 μL of lysate, 4 μL of 5× iScript reaction mix, 1 μL of reverse transcriptase, and 10 μL of water are combined and incubated 5 min at 25° C. followed by 30 min at 42° C., followed by 5 min at 85° C. The cDNA solution is stored at −20° C.
To perform endpoint PCR, 5 μL of cDNA, 0.2 μL of 100 μM forward primer, 0.2 μL of 100 μM reverse primer, and 22.5 μL of polymerase super mix are combined in a 96 well semiskirted PCR plate. PCR is carried out at the following temperatures for the indicated time: Step 1: 94° C. (2 min), Step 2: 94° C. […]

| Compound | SMN1 minigene FL mRNA (gel band) | SMN1 minigene Δ7 mRNA (gel band) |
| --- | --- | --- |
| Cc1cn2cc(-c3cc4ccc(N5CCN(C)CC5)cc4c(=O)o3)nc2c(C)n1 [Cpd 65, 3-(6,8-dimethylimidazo[1,2-a]pyrazin-2-yl)-7-(4-methylpiperazin-1-yl)-1H-isochromen-1-one] | progressively more SMN1 minigene FL mRNA | less SMN1 minigene Δ7 mRNA |
| Cc1cn2cc(-c3cc4ccc(N5CCN6CCC[C@H]6C5)cc4c(=O)o3)nc2c(C)n1 [Cpd 69, 3-(6,8-dimethylimidazo[1,2-a]pyrazin-2-yl)-7-[(8aS)-hexahydropyrrolo[1,2-a]pyrazin-2(1H)-yl]-1H-isochromen-1-one] | progressively more SMN1 minigene FL mRNA | less SMN1 minigene Δ7 mRNA |
